How the values were obtained:
Experiment in all cases: relative viability (nuclei count vs DMSO), 5 days (fraction); higher = more cells survive
[1] = compound: O=C(Nc1cc(C(F)(F)F)cc(C(F)(F)F)c1)c1cc(Cl)ccc1O [IMD-0354] + CS(=O)(=O)CCNCc1ccc(-c2ccc3ncnc(Nc4ccc(OCc5cccc(F)c5)c(Cl)c4)c3c2)o1 [Lapatinib] (partner 2 µM)
In short: (§1)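 The day after seeding in 1536-well plates, lung cancer cell lines were treated by pin tool with a single drug, or with a fixed anchor-drug dose together with five library-drug doses (not always all listed) in √10 steps. After 5 days, a combined fix-and-stain solution (final 0.05% Triton X-100, 1% formaldehyde, 1 ug/ml Hoechst) was added. Nuclei counted on 4× images gave relative viability as treated counts over vehicle counts, reported as the median of duplicate plates.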

[2] = compound: O=C(Nc1cc(C(F)(F)F)cc(C(F)(F)F)c1)c1cc(Cl)ccc1O [IMD-0354] + CC(C)C[C@H](NC(=O)[C@H](Cc1ccccc1)NC(=O)c1cnccn1)B(O)O [Bortezomib] (partner 0.002 µM)
In short: as §1

[3] = compound: Cc1cnc(CNC(=O)c2c(=O)c3ccc(N4CCCN(C)CC4)nc3n3c2sc2ccccc23)cn1 [CX-5461] + Cc1cc(Nc2cc(N3CCN(C)CC3)nc(Sc3ccc(NC(=O)C4CC4)cc3)n2)n[nH]1 [Tozasertib] (partner 0.1 µM)
In short: as §1

[4] = compound: Cc1cnc(CNC(=O)c2c(=O)c3ccc(N4CCCN(C)CC4)nc3n3c2sc2ccccc23)cn1 [CX-5461] + N=C(N)NC(=N)NCCc1ccccc1 [Phenformin] (partner 250 µM)
In short: as §1

Cell Line	relative viability ([1]; first compound 0.04 µM)	relative viability ([1]; first compound 0.1265 µM)	relative viability ([1]; first compound 0.4 µM)	relative viability ([1]; first compound 1.265 µM)	relative viability ([1]; first compound 4 µM)	relative viability ([2]; first compound 0.04 µM)	relative viability ([2]; first compound 0.1265 µM)	relative viability ([2]; first compound 0.4 µM)	relative viability ([2]; first compound 1.265 µM)	relative viability ([2]; first compound 4 µM)	relative viability ([3]; first compound 0.01 µM)	relative viability ([3]; first compound 0.03162 µM)	relative viability ([3]; first compound 0.1 µM)	relative viability ([3]; first compound 0.3162 µM)	relative viability ([3]; first compound 1 µM)	relative viability ([4]; first compound 0.01 µM)	relative viability ([4]; first compound 0.03162 µM)	relative viability ([4]; first compound 0.1 µM)	relative viability ([4]; first compound 0.3162 µM)	relative viability ([4]; first compound 1 µM)
201T	1.07	1.08	0.827	1.04	0.333	1.12	1.1	0.928	0.924	0.361	0.921	1.04	0.945	0.847	0.925	0.468	0.431	0.464	0.441	0.388
A549	1.19	1.04	0.245	0.101	0.105											0.155	0.165	0.104	0.0393	0.0272
A-427	1.12	1.02	0.678	0.618	0.105	1.14	1.07	0.543	0.369	0.109	0.195	0.247	0.212		0.212	0.338	0.348	0.36		0.223
ABC-1	1.31	1.15		1.17	0.612	0.35	0.332	0.343	0.213	0.218	0.15	0.194	0.188		0.186	0.23	0.212	0.213		0.212
BEN	0.601	0.878	0.373	0.266	0.229	0.874	0.964	0.462	0.296	0.217	0.481	0.529	0.499	0.495	0.498	0.28	0.263	0.253	0.28	0.268
CAL-12T	0.611	0.665	0.533	0.4	0.259	1.03	0.963	0.682	0.177	0.18	0.361	0.353	0.222	0.272	0.174	0.643	0.653	0.328	0.531	0.35
COR-L23	1.09	0.831	0.439	0.117	0.172	0.932	0.823	0.372	0.114	0.249	0.246	0.202	0.176	0.182	0.119	0.472	0.431	0.414	0.426	0.301
COR-L 105	0.332	0.329	0.339	0.243	0.253	0.757	0.663	0.76	0.239	0.274	0.342	0.339	0.4	0.371	0.306	0.496	0.557	0.414	0.405	0.306
Calu-6	0.983	1.1	0.6	0.223	0.2	1.1	1.1	0.673	0.167	0.124										
ChaGo-K-1						1.39	1.21	0.67	0.326	0.39	0.185	0.227	0.247	0.229	0.232	0.512	0.527	0.474	0.299	0.268
EBC-1	0.163	0.202	0.251	0.168	0.249	0.54	0.59	0.471	0.184	0.195										
EKVX	0.406	0.203		0.128	0.134	1	1.39		0.716	0.187	0.387	0.366	0.332	0.35	0.378	0.231	0.236	0.186	0.224	0.24
EMC-BAC-2	0.965	0.803	0.555	0.408	0.229	1.17	1.03	0.553	0.634	0.217	0.275	0.314	0.247	0.252	0.244	0.507	0.518	0.399	0.299	0.271
EPLC-272H	1.32	0.944	0.618	0.716	0.205	0.966	0.986	0.686	0.955	0.266	0.22	0.381	0.33		0.477	0.278	0.299	0.264		0.361
H3255	0.189	0.246	0.276	0.17	0.207	0.804	0.9	0.509	0.22	0.27	0.691	0.603	0.694	0.568	0.527	0.373	0.367	0.374	0.301	0.338

From the supplement of paper PMC10307832
